US20100331297A1, “MODULATION OF PROTEIN TRAFFICKING” (FOLDRX PHARMACEUTICALS, INC., priority 2007, published 2010)

Molecular target: ΔF508 CFTR (Homo sapiens, UniProt P13569, DEL508-508)
Assay: Stabilization of ΔF508 CFTR in CFBE cells (western blot, densitometry)
Type: cell-based
Conditions: 16 hours at 37° C.
Source text: In addition, efficacy of a compound can be evaluated before (first in time), concomitantly or subsequently to the above-mentioned test modalities by monitoring, e.g., (i) modulation (e.g., an improvement) of the stability of a trafficking defective protein, (ii) modulation (e.g., an improvement) of proper, physiological trafficking of the trafficking defective protein, or (iii) modulation (e.g., a restoration) in one or more functions of a trafficking defective protein. For example, in some cases, proteins (e.g., protein mutants such as ΔF508 CFTR) are prematurely degraded. Thus, the efficacy of a given compound to modulate protein trafficking can be determined by monitoring the stability of a protein in the presence as compared to the absence of the compound. For example, cells expressing a trafficking defective protein (e.g., expressing endogenously or expressing an exogenous transgene encoding a trafficking defective protein such as ΔF508 CFTR) can be cultured in the presence or absence of a compound for at least 1 hour (e.g., at least 2 hours, at least 4 hours, at least 6 hours, at least 8 hours, at least 12 hours, at least 16 hours, at least 24 hours, at least 36 hours, or at least 48 hours). Cell lysates can be prepared from the different populations of cells, suspended in Laemmli buffer (with or without reducing agent) and subjected to sodium dodecyl sulfate-polyacrylamide gel electrophoresis (SDS-PAGE). Using antibodies that specifically recognize the trafficking defective protein (e.g., CFTR), the amount of the protein in the presence as compared to in the absence of a compound can be determined by western or dot-blotting techniques. […] Where a modified state (e.g., glycosylation or phosphorylation) of a protein is indicative of increased stability, a change in the modified state of a protein can also be used to determine if a compound stabilizes the trafficking defective protein. For example, the amount of glycosylated CFTR (e.g., ΔF508 CFTR) can be assessed in the presence as compared to the absence of a compound.
The compounds can be tested for their ability to stabilize ΔF508 CTFR. CFBE cells, a cell line generated by transformation of cystic fibrosis tracheo-bronchial cells (ΔF508 CTFR homozygous) with SV40 (Bruscia et al. (2002) Gene Ther. 9(11):683-685), can be cultured with 10 μM of the selected compounds, or 10 μM VRT-325 for 16 hours at 37° C. (VRT-325 is described in, e.g., Van Goor et al. (2006) Am. J. Physiol. Lung Cell Mol. Physiol. 290:L1117-L1130). A population of cells can also be cultured with the dimethyl sulfoxide (DMSO) solvent as a control.
Following incubation, cells were lysed, solubilized in Laemmli buffer, and subjected to SDS-PAGE. CFTR protein were visualized by western blotting using an antibody specific for CFTR. Culturing CFBE cells with compound 25 (see Table I for structure) increased the amount of cellular ΔF508 CFTR protein.
The effect of different concentrations of compound 25 on ΔF508 CFTR was tested in a dose response experiment. […] The relative amounts of glysosylated and unglycosylated ΔF508 CFTR protein were visualized by western blotting (FIG. 10A), and the band intensities wer quantitated by scanning and densitometry (FIG. 10B). […] The relative amounts of glysosylated and unglycosylated ΔF508 CFTR protein were visualized by western blotting (FIG. 11A), and the band intensities wer quantitated by scanning and densitometry (FIG. 11B).

Sequence of ΔF508 CFTR (P13569 with tags, fused parts or gaps DEL508-508): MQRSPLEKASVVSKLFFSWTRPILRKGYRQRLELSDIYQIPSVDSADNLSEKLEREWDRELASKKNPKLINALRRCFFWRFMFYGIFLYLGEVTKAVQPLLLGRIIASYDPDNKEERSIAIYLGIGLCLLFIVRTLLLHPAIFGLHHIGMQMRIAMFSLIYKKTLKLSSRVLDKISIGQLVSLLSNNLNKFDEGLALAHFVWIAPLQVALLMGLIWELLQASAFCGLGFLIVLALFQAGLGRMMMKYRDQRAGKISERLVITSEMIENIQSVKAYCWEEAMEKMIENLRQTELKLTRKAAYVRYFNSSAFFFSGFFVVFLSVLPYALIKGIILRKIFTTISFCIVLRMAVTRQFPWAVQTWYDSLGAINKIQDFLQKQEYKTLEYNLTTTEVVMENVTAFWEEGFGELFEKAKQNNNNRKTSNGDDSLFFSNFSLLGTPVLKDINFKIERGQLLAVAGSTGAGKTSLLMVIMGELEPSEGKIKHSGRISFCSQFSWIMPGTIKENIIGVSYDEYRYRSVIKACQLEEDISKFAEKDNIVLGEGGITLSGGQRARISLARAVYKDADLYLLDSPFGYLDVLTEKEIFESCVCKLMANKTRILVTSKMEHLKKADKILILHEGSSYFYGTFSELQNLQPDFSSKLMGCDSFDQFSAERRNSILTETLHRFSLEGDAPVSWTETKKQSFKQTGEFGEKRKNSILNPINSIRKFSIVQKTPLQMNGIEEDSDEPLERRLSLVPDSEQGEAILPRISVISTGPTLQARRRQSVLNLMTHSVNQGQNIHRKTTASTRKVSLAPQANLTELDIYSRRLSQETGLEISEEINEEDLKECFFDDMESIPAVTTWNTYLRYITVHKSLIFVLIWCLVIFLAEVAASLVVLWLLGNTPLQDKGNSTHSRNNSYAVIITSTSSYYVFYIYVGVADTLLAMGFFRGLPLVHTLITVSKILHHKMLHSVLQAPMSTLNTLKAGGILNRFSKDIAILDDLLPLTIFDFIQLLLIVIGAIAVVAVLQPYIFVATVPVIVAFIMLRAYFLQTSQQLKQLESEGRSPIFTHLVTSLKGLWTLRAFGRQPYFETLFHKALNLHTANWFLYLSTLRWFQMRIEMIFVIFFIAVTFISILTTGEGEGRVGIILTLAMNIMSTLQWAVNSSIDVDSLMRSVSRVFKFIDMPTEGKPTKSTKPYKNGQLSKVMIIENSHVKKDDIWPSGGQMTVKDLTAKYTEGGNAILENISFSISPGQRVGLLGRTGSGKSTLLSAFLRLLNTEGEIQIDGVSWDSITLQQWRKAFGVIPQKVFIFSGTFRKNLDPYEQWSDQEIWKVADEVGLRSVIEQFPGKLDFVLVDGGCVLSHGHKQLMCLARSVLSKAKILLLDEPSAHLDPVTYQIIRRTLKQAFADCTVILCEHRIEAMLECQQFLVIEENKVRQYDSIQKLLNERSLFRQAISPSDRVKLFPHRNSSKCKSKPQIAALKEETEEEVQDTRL

CC(C)(C)n1nc(-c2ccc(Cl)cc2)c2c(N)ncnc21 [compound 25]
amount of cellular ΔF508 CFTR protein (western blot) (10 μM): increased
amount of the glycosylated form of ΔF508 CFTR (western blot) (10 μM): increased
effect on stabilizing ΔF508 CFTR relative to VRT-325 (10 μM): comparable or better
glycosylated (Band B) ΔF508 CFTR protein vs absence of compound, dose response (1.25-10 μM (compound 25), 1-10 μM (compound 5)): increased
